Results taken from ChEMBL document CHEMBL5634077, “Recent advances in 1,2,3- and 1,2,4-triazole hybrids as antimicrobials and their SAR: A critical review” (2023).
≈ marks a conversion by molar mass, not a printed value.

Key:
[1] = tested on: Escherichia coli; assay: Antibacterial activity against Escherichia coli assessed as reduction in bacterial growth by broth microdilution method; assay type: functional
[2] = tested on: Escherichia coli; assay: Antibacterial activity against Escherichia coli assessed as reduction in bacterial growth; assay type: functional
[3] = tested on: Bacillus subtilis; assay: Antibacterial activity against Bacillus subtilis assessed as reduction in bacterial growth; assay type: functional
[4] = tested on: Pichia kudriavzevii; assay: Antifungal activity against Candida krusei IFRC 1012 assessed as reduction in fungal growth by CLSI based micro-dilution asssay; assay type: functional
[5] = tested on: Nakaseomyces glabratus; assay: Antifungal activity against Candida glabrata assessed as reduction in fungal growth by CLSI based micro-dilution asssay; assay type: functional
[6] = tested on: Candida parapsilosis; assay: Antifungal activity against Candida parapsilosis IFRC 1269 assessed as reduction in fungal growth by CLSI based micro-dilution asssay; assay type: functional; details: Lodderomyces parapsilosis
[7] = tested on: Candida tropicalis; assay: Antifungal activity against Candida tropicalis IFRC 1057 assessed as reduction in fungal growth by CLSI based micro-dilution asssay; assay type: functional
[8] = tested on: Candida albicans; assay: Antifungal activity against Candida albicans IFRC 194 assessed as reduction in fungal growth by CLSI based micro-dilution asssay; assay type: functional
[9] = tested on: Candida albicans; assay: Antifungal activity against Candida albicans assessed as inhibition of fungal growth; assay type: functional
[10] = tested on: Rhizopus; assay: Antifungal activity against Rhizopus assessed as inhibition of fungal growth; assay type: functional
[11] = tested on: Escherichia coli; assay: Antibacterial activity against Escherichia coli assessed as inhibition of bacterial growth; assay type: functional
[12] = tested on: Klebsiella pneumoniae; assay: Antibacterial activity against Klebsiella pneumoniae assessed as inhibition of bacterial growth; assay type: functional
[13] = tested on: Aspergillus flavus; assay: Antifungal activity against Aspergillus flavus assessed as inhibition of fungal growth; assay type: functional
[14] = tested on: Staphylococcus aureus; assay: Antibacterial activity against Staphylococcus aureus assessed as inhibition of bacterial growth; assay type: functional
[15] = tested on: Escherichia coli; assay: Antibacterial activity against Escherichia coli ATCC 25922 assessed as reduction in microbial growth; assay type: functional
[16] = tested on: Staphylococcus aureus; assay: Antibacterial activity against Staphylococcus aureus ATCC 6538p assessed as reduction in microbial growth; assay type: functional
[17] = tested on: Proteus vulgaris; assay: Antibacterial activity against Proteus vulgaris ATCC 3851 assessed as reduction in microbial growth; assay type: functional
[18] = tested on: Salmonella typhimurium; assay: Antibacterial activity against Salmonella typhimurium SL1344 assessed as reduction in microbial growth; assay type: functional, Salmonella enterica subsp. enterica serovar Typhimurium; details: Salmonella enterica
[19] = tested on: Bacillus subtilis; assay: Antibacterial activity against Bacillus subtilis ATCC 6633 assessed as reduction in microbial growth; assay type: functional
[20] = tested on: Micrococcus luteus; assay: Antibacterial activity against Micrococcus luteus IFC 12708 assessed as reduction in microbial growth; assay type: functional
[21] = tested on: Aspergillus flavus; assay: Antifungal activity against Aspergillus flavus assessed as diameter of inhibition zone at 50 to 100 ug/ml by disc-diffusion method; assay type: functional; details: dose 50-100 µg/ml
[22] = tested on: Candida albicans; assay: Antifungal activity against Candida albicans assessed as diameter of inhibition zone at 50 to 100 ug/ml by disc-diffusion method; assay type: functional; details: dose 50-100 µg/ml
[23] = tested on: Candida albicans; assay: Antimicrobial activity against Candida albicans assessed as diameter of inhibition zone incubated for 24 hrs by disc-diffusion method; assay type: functional
[24] = tested on: Staphylococcus aureus; assay: Antimicrobial activity against Staphylococcus aureus assessed as diameter of inhibition zone incubated for 24 hrs by disc-diffusion method; assay type: functional
[25] = tested on: Escherichia coli; assay: Antimicrobial activity against Escherichia coli assessed as diameter of inhibition zone incubated for 24 hrs by disc-diffusion method; assay type: functional
[26] = tested on: Klebsiella pneumoniae; assay: Antimicrobial activity against Klebsiella pneumoniae assessed as diameter of inhibition zone incubated for 24 hrs by disc-diffusion method; assay type: functional
[27] = tested on: Aspergillus fumigatus; assay: […] activity against Aspergillus fumigatus NCIM 2081 assessed as reduction in […] by micro-broth dilution method; assay type: functional
[28] = tested on: Escherichia coli; assay: Antibacterial activity against Escherichia coli ATCC 8739 assessed as reduction in bacterial growth by micro-broth dilution method; assay type: functional
[29] = tested on: Aspergillus niger; assay: […] activity against Aspergillus niger NCIM 2191 assessed as reduction in […] by micro-broth dilution method; assay type: functional
[30] = tested on: Staphylococcus aureus; assay: Antibacterial activity against Staphylococcus aureus ATCC 29213 assessed as reduction in bacterial growth by micro-broth dilution method; assay type: functional
[31] = tested on: Candida albicans; assay: Antifungal activity against Candida albicans NCIM 2087 assessed as fungal growth inhibition; assay type: functional
[32] = tested on: Pseudomonas aeruginosa; assay: Antibacterial activity against Pseudomonas aeruginosa MCCB 0035 assessed as reduction in bacterial growth by micro-broth dilution method; assay type: functional
[33] = tested on: Staphylococcus aureus; assay: Antibacterial activity against Staphylococcus aureus; assay type: functional
[34] = tested on: Staphylococcus aureus; assay: Antibacterial activity against Staphylococcus aureus NCIM 2079 assessed as reduction in bacterial growth incubated for 18 to 24 hrs by broth microdilution method; assay type: functional; details: time 18-24 hrs
[35] = tested on: Escherichia coli; assay: Antibacterial activity against Escherichia coli NCIM 2065 assessed as reduction in bacterial growth incubated for 18 to 24 hrs by broth microdilution method; assay type: functional; details: time 18-24 hrs
[36] = tested on: Pseudomonas aeruginosa; assay: Antibacterial activity against Pseudomonas aeruginosa NCIM 2036 assessed as reduction in bacterial growth incubated for 18 to 24 hrs by broth microdilution method; assay type: functional; details: time 18-24 hrs
[37] = tested on: Bacillus cereus; assay: Antibacterial activity against Bacillus cereus NCIM 2156 assessed as reduction in bacterial growth incubated for 18 to 24 hrs by broth microdilution method; assay type: functional; details: time 18-24 hrs
[38] = tested on: Proteus vulgaris; assay: Antibacterial activity against Proteus vulgaris NCIM 2027 assessed as reduction in bacterial growth incubated for 18 to 24 hrs by broth microdilution method; assay type: functional; details: time 18-24 hrs
[39] = tested on: Bacillus subtilis; assay: Antibacterial activity against Bacillus subtilis NCIM 2063 assessed as reduction in bacterial growth incubated for 18 to 24 hrs by broth microdilution method; assay type: functional; details: time 18-24 hrs
[40] = tested on: Proteus mirabilis; assay: Antibacterial activity against Proteus mirabilis NCIM 2241 assessed as reduction in bacterial growth incubated for 18 to 24 hrs by broth microdilution method; assay type: functional; details: time 18-24 hrs

CC(C)Cc1ccc(C(C)C(=O)NC(Cc2cn(Cc3cn(CC(=O)Nc4ccccc4[N+](=O)[O-])nn3)c3ccccc23)C(=O)NC(Cc2ccccc2)C(N)=O)cc1 (stereo unspecified) gave an MIC [1] of 25 µg/mL (≈ 31.3 µM).
Molecule CC(c1ccc(Br)cc1)n1cc(Cn2cc(/C=C/C(=O)c3ccc(Br)cc3)c3ccccc32)nn1 (stereo unspecified) has an MIC [2] of 10.9 µM (≈ 6.43 µg/mL) and an MIC [3] of 10.9 µM (≈ 6.43 µg/mL).
OC(CSC(=S)N1CCN(Cc2ccc(Cl)cc2)CC1)(Cn1cncn1)c1ccc(F)cc1F (stereo unspecified) gave an MIC [4] of 0.063 µg/mL (≈ 0.12 µM), an MIC [5] of 0.063 µg/mL (≈ 0.12 µM) and an MIC [6] of 0.063 µg/mL (≈ 0.12 µM). The MIC [7] was 0.063 µg/mL (≈ 0.12 µM) and the MIC [8] was 0.063 µg/mL (≈ 0.12 µM).
In the case of COc1cc(N2CCC(c3n[nH]c(=S)n3-c3cc(Cl)cc(Cl)c3)CC2)ccc1Cl, the MIC [9] is reported as 16 µg/mL (≈ 34.1 µM), the MIC [10] is reported as 32 µg/mL (≈ 68.1 µM) and the MIC [11] is reported as 8 µg/mL (≈ 17 µM). For the same molecule, the MIC [12] was 8 µg/mL (≈ 17 µM), the MIC [13] was 32 µg/mL (≈ 68.1 µM) and the MIC [14] was 16 µg/mL (≈ 34.1 µM).
COc1cc(N2CCC(c3n[nH]c(=S)n3-c3cccc(Cl)c3)CC2)ccc1Cl gave an MIC [9] of 8 µg/mL (≈ 18.4 µM), an MIC [10] of 8 µg/mL (≈ 18.4 µM) and an MIC [11] of 8 µg/mL (≈ 18.4 µM). It also gave an MIC [12] of 4 µg/mL (≈ 9.19 µM), an MIC [13] of 4 µg/mL (≈ 9.19 µM) and an MIC [14] of 4 µg/mL (≈ 9.19 µM).
Cc1c(-c2nn(-c3ccccc3)cc2C2SCC(=O)N2c2ccc(F)cc2)nnn1-c1ccccc1 (stereo unspecified) showed an MIC [15] of 1.56 µg/mL, an MIC [16] of 1.56 µg/mL and an MIC [17] of 1.56 µg/mL. The MIC [18] was 1.56 µg/mL, the MIC [19] was 1.56 µg/mL and the MIC [20] was 1.56 µg/mL.
In the case of CCOC(=O)C1=C(C)Oc2nc(C)n(Cc3cn(-c4cccc(C(F)(F)F)c4)nn3)c(=O)c2C1c1ccc([N+](=O)[O-])cc1 (stereo unspecified), the “diameter of the inhibition zone (DIZ)” value [21] is reported as 10.5 mm and the “diameter of the inhibition zone (DIZ)” value [22] is reported as 10.5 mm.
For COc1cc(/C=N/n2c(-c3ccc(Cl)cc3Cl)n[nH]c2=S)ccc1O, the “diameter of the inhibition zone (DIZ)” value [23] was 3 mm, the “diameter of the inhibition zone (DIZ)” value [24] was 3 mm and the “diameter of the inhibition zone (DIZ)” value [25] was 3 mm. For the same molecule, the “diameter of the inhibition zone (DIZ)” value [26] was 3 mm.
O=c1cc(-c2ccccc2)c2cc(Br)ccc2n1Cc1nnc2n1N=C(c1ccccc1)CS2 showed an MIC [27] of 32 µg/mL (≈ 60.6 µM), an MIC [28] of 2 µg/mL (≈ 3.78 µM) and an MIC [29] of 4 µg/mL (≈ 7.57 µM). It also gave an MIC [30] of 1 µg/mL (≈ 1.89 µM), an MIC [31] of 2 µg/mL (≈ 3.78 µM) and an MIC [32] of 4 µg/mL (≈ 7.57 µM).
Molecule Cc1ccc(NC(=O)Cn2cc(COc3ccc(C(=O)/C=C/c4ccccc4)cc3)nn2)cc1 has an MIC [3] of 13 µM (≈ 5.88 µg/mL) and an MIC [33] of 13 µM (≈ 5.88 µg/mL).
With COc1cc(N2CCC(c3n[nH]c(=S)n3-c3cccc(C(F)(F)F)c3)CC2)ccc1Cl the MIC [9] was 8 µg/mL (≈ 17.1 µM), the MIC [10] was 8 µg/mL (≈ 17.1 µM) and the MIC [11] was 4 µg/mL (≈ 8.53 µM). For the same molecule, the MIC [12] was 8 µg/mL (≈ 17.1 µM), the MIC [13] was 4 µg/mL (≈ 8.53 µM) and the MIC [14] was 4 µg/mL (≈ 8.53 µM).
For CC(=O)NCn1nc(NCCCNc2ccnc3cc(Cl)ccc23)n(N)c1=S, the MIC [34] was 6.25 µg/mL (≈ 14.8 µM), the MIC [35] was 12.5 µg/mL (≈ 29.7 µM) and the MIC [36] was 25 µg/mL (≈ 59.4 µM). For the same molecule, the MIC [37] was 6.25 µg/mL (≈ 14.8 µM), the MIC [38] was 12.5 µg/mL (≈ 29.7 µM) and the MIC [39] was 12.5 µg/mL (≈ 29.7 µM). It also gave an MIC [40] of 12.5 µg/mL (≈ 29.7 µM).
Molecule NC(=O)NCn1nc(NCCCNc2ccnc3cc(Cl)ccc23)n(N)c1=S has an MIC [34] of 6.25 µg/mL (≈ 14.8 µM), an MIC [35] of 3.12 µg/mL (≈ 7.41 µM) and an MIC [36] of 50 µg/mL (≈ 119 µM). The MIC [37] was 3.12 µg/mL (≈ 7.41 µM), the MIC [38] was 12.5 µg/mL (≈ 29.6 µM) and the MIC [39] was 12.5 µg/mL (≈ 29.6 µM). The MIC [40] was 12.5 µg/mL (≈ 29.6 µM).
For CCOC(=O)C1=C(C)Oc2nc(C)n(Cc3cn(-c4cccc(F)c4)nn3)c(=O)c2C1c1ccc([N+](=O)[O-])cc1 (stereo unspecified), the “diameter of the inhibition zone (DIZ)” value [21] was 12 mm and the “diameter of the inhibition zone (DIZ)” value [22] was 12 mm.
For COc1cc(/C=N/n2c(-c3ccc(Cl)cc3)n[nH]c2=S)ccc1O, the “diameter of the inhibition zone (DIZ)” value [23] was 4 mm, the “diameter of the inhibition zone (DIZ)” value [24] was 4 mm and the “diameter of the inhibition zone (DIZ)” value [25] was 4 mm. For the same molecule, the “diameter of the inhibition zone (DIZ)” value [26] was 4 mm.
